Assay results reported in PMC8615521, “Mitochondria-Mediated Apoptosis of HCC Cells Triggered by Knockdown of Glutamate Dehydrogenase 1: Perspective for Its Inhibition through Quercetin and Permethylated Anigopreissin A” (Biomedicines, 2021).

Assays:
[1] = molecular target: T1, GDH1 from bovine liver (glutamate dehydrogenase 1) (Bos taurus, UniProt P00366); test: spectrophotometric NADH oxidation assay ([…] nm), reference inhibitor measured by the authors; assay type: biochemical
T1 construct: gene GLUD1; purified bovine liver GDH (Sigma Aldrich, Type II)

[2] = molecular target: T2, hGDH1 (human glutamate dehydrogenase 1) (Homo sapiens, UniProt P00367); test: GDH activity in HepG2 cell extract (NADH, […] nm); assay type: cell-based; details: HepG2, read-out: % inhibition at 8 μM %
T2 construct: gene GLUD1; GDH activity in HepG2 cellular extract

[3] = molecular target: T1, GDH1 from bovine liver (glutamate dehydrogenase 1); test: spectrophotometric NADH oxidation assay ([…] nm), Lineweaver-Burk and secondary plots; assay type: biochemical

T1 sequence (P00366 58-558): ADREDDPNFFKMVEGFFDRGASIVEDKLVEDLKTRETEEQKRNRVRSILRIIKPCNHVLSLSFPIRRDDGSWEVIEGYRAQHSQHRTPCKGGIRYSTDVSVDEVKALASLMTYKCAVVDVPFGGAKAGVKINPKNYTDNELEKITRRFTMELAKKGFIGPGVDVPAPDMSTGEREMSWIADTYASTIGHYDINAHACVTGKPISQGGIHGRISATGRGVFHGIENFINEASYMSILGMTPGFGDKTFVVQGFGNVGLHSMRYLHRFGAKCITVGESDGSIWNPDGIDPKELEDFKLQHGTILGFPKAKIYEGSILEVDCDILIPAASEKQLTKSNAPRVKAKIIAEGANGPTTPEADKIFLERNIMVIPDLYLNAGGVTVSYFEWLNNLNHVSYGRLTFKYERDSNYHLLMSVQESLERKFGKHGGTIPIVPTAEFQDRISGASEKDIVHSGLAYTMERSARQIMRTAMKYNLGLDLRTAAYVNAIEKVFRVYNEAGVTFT
T2 sequence (P00367 54-558): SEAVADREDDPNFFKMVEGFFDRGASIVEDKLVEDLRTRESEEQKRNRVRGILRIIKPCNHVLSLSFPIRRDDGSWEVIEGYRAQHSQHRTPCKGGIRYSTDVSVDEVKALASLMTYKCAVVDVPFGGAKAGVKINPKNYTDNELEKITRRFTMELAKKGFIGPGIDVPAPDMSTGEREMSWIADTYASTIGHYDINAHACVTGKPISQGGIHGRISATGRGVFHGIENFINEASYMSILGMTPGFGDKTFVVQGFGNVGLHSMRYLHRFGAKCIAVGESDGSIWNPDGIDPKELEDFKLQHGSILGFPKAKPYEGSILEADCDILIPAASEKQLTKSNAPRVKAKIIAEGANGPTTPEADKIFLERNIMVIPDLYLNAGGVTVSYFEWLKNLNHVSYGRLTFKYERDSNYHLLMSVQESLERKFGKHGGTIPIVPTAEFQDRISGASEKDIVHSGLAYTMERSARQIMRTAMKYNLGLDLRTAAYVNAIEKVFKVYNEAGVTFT

Compound	IC50 [1] [µM]	inhibition at 8 µM [2] [%]	Ki [3] [µM]
O=C(O[C@@H]1Cc2c(O)cc(O)cc2O[C@@H]1c1cc(O)c(O)c(O)c1)c1cc(O)c(O)c(O)c1 [EGCG, Epigallocatechin gallate]	~2		
O=c1c(O)c(-c2ccc(O)c(O)c2)oc2cc(O)cc(O)c12 [quercetin]		~56	9.2
Permethylated Anigopreissin A [PAA]			10
